According to patent US9708314B2, “Heterocyclic amide compound” (NISSAN CHEMICAL INDUSTRIES, LTD., priority 2013, dated 2017):

What was measured:
Type in all cases: in vivo
Alopecurus myosuroides = experiment: Test Example 4: herbicidal effect by application to foliage (diluvial soil, plastic box); conditions: for herbicidal effect, J (Alopecurus myosuroides) / J (Alopecurus myosuroides) herbicidal effect grade: 320 g/ha; for J (Alopecurus myosuroides) herbicidal effect grade: foliage application
Summary of the method: (§1)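 Scores run from 0 (herbicidal ratio ≤5%) to 5 (≥90%, almost fully withered) and were assessed three weeks after foliar spraying. Seedlings had been raised for 14 days at 25-30° C in sterilized diluvial soil before treatment, with the emulsion diluted in water to the stated g/ha dose.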

Veronica persica = experiment: as above; conditions: for herbicidal effect, R (Veronica persica) / R (Veronica persica) herbicidal effect grade: 320 g/ha; for R (Veronica persica) herbicidal effect grade: foliage application
Summary of the method: as §1

Stellaria media = experiment: as above; conditions: for herbicidal effect, P (Stellaria media) / P (Stellaria media) herbicidal effect grade: 320 g/ha; for P (Stellaria media) herbicidal effect grade: foliage application
Summary of the method: as §1

Lolium multiflorum Lam. = experiment: as above; conditions: for herbicidal effect, K (Lolium multiflorum Lam.) / K (Lolium multiflorum Lam.) herbicidal effect grade: 320 g/ha; for K (Lolium multiflorum Lam.) herbicidal effect grade: foliage application
Summary of the method: as §1

Setaria viridis = experiment: as above; conditions: for herbicidal effect, G (Setaria viridis) / G (Setaria viridis) herbicidal effect grade: 320 g/ha; for G (Setaria viridis) herbicidal effect grade: foliage application
Summary of the method: as §1

Amaranthus retroflexus = experiment: as above; conditions: for herbicidal effect, N (Amaranthus retroflexus) / N (Amaranthus retroflexus) herbicidal effect grade: 320 g/ha; for N (Amaranthus retroflexus) herbicidal effect grade: foliage application
Summary of the method: as §1

Avena fatua = experiment: as above; conditions: for herbicidal effect, I (Avena fatua) / I (Avena fatua) herbicidal effect grade: 320 g/ha; for I (Avena fatua) herbicidal effect grade: foliage application
Summary of the method: as §1

Chenopodium album = experiment: as above; conditions: for herbicidal effect, O (Chenopodium album) / O (Chenopodium album) herbicidal effect grade: 320 g/ha; for O (Chenopodium album) herbicidal effect grade: foliage application
Summary of the method: as §1

Apera spica-venti. = experiment: as above; conditions: for herbicidal effect, L (Apera spica-venti.) / L (Apera spica-venti.) herbicidal effect grade: 320 g/ha; for L (Apera spica-venti.) herbicidal effect grade: foliage application
Summary of the method: as §1

Abutilon theophrasti = experiment: as above; conditions: for herbicidal effect, M (Abutilon theophrasti) / M (Abutilon theophrasti) herbicidal effect grade: 320 g/ha; for M (Abutilon theophrasti) herbicidal effect grade: foliage application
Summary of the method: as §1

[1] = test system: Echinochloa crus-galli var. crus-galli; experiment: as above; conditions: for herbicidal effect, H (Echinochloa crus-galli var. crus-galli) / H (Echinochloa crus-galli var. crus-galli) herbicidal effect grade: 320 g/ha; for H (Echinochloa crus-galli var. crus-galli) herbicidal effect grade: foliage application
Summary of the method: as §1

Digitaria ciliaris = experiment: as above; conditions: for herbicidal effect, F (Digitaria ciliaris) / F (Digitaria ciliaris) herbicidal effect grade: 320 g/ha; for F (Digitaria ciliaris) herbicidal effect grade: foliage application
Summary of the method: as §1

Scirpus juncoides = experiment: Test Example 2: herbicidal activity, application during weed generation in submerged conditions; conditions: Eighteenth Table; application herbicide amount 320 g/ha
Summary of the method: (§2)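 Alluvial soil in Wagner pots flooded to 4 cm water depth; seeds sown mixed, grown in greenhouse at 25–30 °C. At one- to two-leaf stage, emulsion diluted with water to the set rate (g/ha) was applied to the water surface. Effect scored 0–5 by herbicidal ratio three weeks later.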

[2] = test system: Echinochloa oryzacola Vasing.; experiment: as above; conditions: Eighteenth Table; application herbicide amount 320 g/ha
Summary of the method: as §2

Monochoria vaginalis = experiment: as above; conditions: Eighteenth Table; application herbicide amount 320 g/ha
Summary of the method: as §2

[3] = application to foliage, application herbicide amount 320 g/ha

Compound: Cn1nnnc1NC(=O)c1ccc(C(F)(F)F)n2c(N3CCOCC3)nnc12 [2-075]
- herbicidal effect, J (Alopecurus myosuroides) (Alopecurus myosuroides; application to foliage): 4 (Herbicidal ratio of 70% or more and less than 90%)
- herbicidal effect, R (Veronica persica) (Veronica persica; application to foliage): 5 (Herbicidal ratio of 90% or more (almost completely withered))
- herbicidal effect, P (Stellaria media) (Stellaria media; application to foliage): 5 (Herbicidal ratio of 90% or more (almost completely withered))
- herbicidal effect, K (Lolium multiflorum Lam.) (Lolium multiflorum Lam.; application to foliage): 4 (Herbicidal ratio of 70% or more and less than 90%)
- herbicidal effect, G (Setaria viridis) (Setaria viridis; application to foliage): 5 (Herbicidal ratio of 90% or more (almost completely withered))
- herbicidal effect, N (Amaranthus retroflexus) (Amaranthus retroflexus; application to foliage): 5 (Herbicidal ratio of 90% or more (almost completely withered))
- herbicidal effect, I (Avena fatua) (Avena fatua; application to foliage): 5 (Herbicidal ratio of 90% or more (almost completely withered))
- herbicidal effect, O (Chenopodium album) (Chenopodium album; application to foliage): 5 (Herbicidal ratio of 90% or more (almost completely withered))
- herbicidal effect, L (Apera spica-venti.) (Apera spica-venti.; application to foliage): 4 (Herbicidal ratio of 70% or more and less than 90%)
- herbicidal effect, M (Abutilon theophrasti) (Abutilon theophrasti; application to foliage): 5 (Herbicidal ratio of 90% or more (almost completely withered))
- herbicidal effect, H (Echinochloa crus-galli var. crus-galli) ([1]; application to foliage): 5 (Herbicidal ratio of 90% or more (almost completely withered))
- herbicidal effect, F (Digitaria ciliaris) (Digitaria ciliaris; application to foliage): 5 (Herbicidal ratio of 90% or more (almost completely withered))
- B (Scirpus juncoides) herbicidal ratio grade (Scirpus juncoides): 5 (Herbicidal ratio of 90% or more (almost completely withered))
- A (Echinochloa oryzicola Vasing.) herbicidal ratio grade [2]: 5 (Herbicidal ratio of 90% or more (almost completely withered))
- C (Monochoria vaginalis) herbicidal ratio grade (Monochoria vaginalis): 5 (Herbicidal ratio of 90% or more (almost completely withered))

Compound: CCS(=O)(=O)c1nnc2c(C(=O)Nc3nnnn3C)ccc(C(F)(F)F)n12 [2-038]
- J (Alopecurus myosuroides) herbicidal effect grade (Alopecurus myosuroides): 5 (Herbicidal ratio of 90% or more (almost completely withered))
- R (Veronica persica) herbicidal effect grade (Veronica persica): 5 (Herbicidal ratio of 90% or more (almost completely withered))
- P (Stellaria media) herbicidal effect grade (Stellaria media): 5 (Herbicidal ratio of 90% or more (almost completely withered))
- K (Lolium multiflorum Lam.) herbicidal effect grade (Lolium multiflorum Lam.): 5 (Herbicidal ratio of 90% or more (almost completely withered))
- G (Setaria viridis) herbicidal effect grade (Setaria viridis): 5 (Herbicidal ratio of 90% or more (almost completely withered))
- N (Amaranthus retroflexus) herbicidal effect grade (Amaranthus retroflexus): 5 (Herbicidal ratio of 90% or more (almost completely withered))
- I (Avena fatua) herbicidal effect grade (Avena fatua): 5 (Herbicidal ratio of 90% or more (almost completely withered))
- O (Chenopodium album) herbicidal effect grade (Chenopodium album): 5 (Herbicidal ratio of 90% or more (almost completely withered))
- L (Apera spica-venti.) herbicidal effect grade (Apera spica-venti.): 5 (Herbicidal ratio of 90% or more (almost completely withered))
- M (Abutilon theophrasti) herbicidal effect grade (Abutilon theophrasti): 5 (Herbicidal ratio of 90% or more (almost completely withered))
- H (Echinochloa crus-galli var. crus-galli) herbicidal effect grade [1]: 5 (Herbicidal ratio of 90% or more (almost completely withered))
- F (Digitaria ciliaris) herbicidal effect grade (Digitaria ciliaris): 5 (Herbicidal ratio of 90% or more (almost completely withered))
- B (Scirpus juncoides) herbicidal ratio grade (Scirpus juncoides): 4 (Herbicidal ratio of 70% or more and less than 90%)
- A (Echinochloa oryzicola Vasing.) herbicidal ratio grade [2]: 5 (Herbicidal ratio of 90% or more (almost completely withered))
- C (Monochoria vaginalis) herbicidal ratio grade (Monochoria vaginalis): 5 (Herbicidal ratio of 90% or more (almost completely withered))

Compound: CC(C)c1nc2c(C(=O)Nc3nnnn3C)ccc(C(F)(F)F)n2n1 [7-002]
- herbicidal effect, J (Alopecurus myosuroides) (Alopecurus myosuroides; application to foliage): 0 (Herbicidal ratio of 5% or less (almost no effect))
- herbicidal effect, R (Veronica persica) (Veronica persica; application to foliage): 3 (Herbicidal ratio of 40% or more and less than 70%)
- herbicidal effect, P (Stellaria media) (Stellaria media; application to foliage): 4 (Herbicidal ratio of 70% or more and less than 90%)
- herbicidal effect, K (Lolium multiflorum Lam.) (Lolium multiflorum Lam.; application to foliage): 0 (Herbicidal ratio of 5% or less (almost no effect))
- herbicidal effect, G (Setaria viridis) (Setaria viridis; application to foliage): 2 (Herbicidal ratio of 20% or more and less than 40%)
- herbicidal effect, N (Amaranthus retroflexus) (Amaranthus retroflexus; application to foliage): 4 (Herbicidal ratio of 70% or more and less than 90%)
- herbicidal effect, I (Avena fatua) (Avena fatua; application to foliage): 1 (Herbicidal ratio of 5% or more and less than 20%)
- herbicidal effect, O (Chenopodium album) (Chenopodium album; application to foliage): 5 (Herbicidal ratio of 90% or more (almost completely withered))
- herbicidal effect, L (Apera spica-venti.) (Apera spica-venti.; application to foliage): 0 (Herbicidal ratio of 5% or less (almost no effect))
- herbicidal effect, M (Abutilon theophrasti) (Abutilon theophrasti; application to foliage): 3 (Herbicidal ratio of 40% or more and less than 70%)
- herbicidal effect, H (Echinochloa crus-galli var. crus-galli) ([1]; application to foliage): 4 (Herbicidal ratio of 70% or more and less than 90%)
- herbicidal effect, F (Digitaria ciliaris) (Digitaria ciliaris; application to foliage): 3 (Herbicidal ratio of 40% or more and less than 70%)
- B (Scirpus juncoides) herbicidal ratio grade (Scirpus juncoides): 2 (Herbicidal ratio of 20% or more and less than 40%)
- A (Echinochloa oryzicola Vasing.) herbicidal ratio grade [2]: 4 (Herbicidal ratio of 70% or more and less than 90%)
- C (Monochoria vaginalis) herbicidal ratio grade (Monochoria vaginalis): 2 (Herbicidal ratio of 20% or more and less than 40%)

Compound: CC(C)c1nnc2c(C(=O)Nc3nnnn3C)ccc(C(F)(F)F)n12 [2-003]
- J: herbicidal effect on Alopecurus myosuroides (Alopecurus myosuroides; [3]): 3 (Herbicidal ratio of 40% or more and less than 70%)
- R: herbicidal effect on Veronica persica (Veronica persica; [3]): 5 (Herbicidal ratio of 90% or more (almost completely withered))
- P: herbicidal effect on Stellaria media (Stellaria media; [3]): 5 (Herbicidal ratio of 90% or more (almost completely withered))
- K: herbicidal effect on Lolium multiflorum Lam. (Lolium multiflorum Lam.; [3]): 3 (Herbicidal ratio of 40% or more and less than 70%)
- G: herbicidal effect on Setaria viridis (Setaria viridis; [3]): 5 (Herbicidal ratio of 90% or more (almost completely withered))
- N: herbicidal effect on Amaranthus retroflexus (Amaranthus retroflexus; [3]): 5 (Herbicidal ratio of 90% or more (almost completely withered))
- I: herbicidal effect on Avena fatua (Avena fatua; [3]): 3 (Herbicidal ratio of 40% or more and less than 70%)
- O: herbicidal effect on Chenopodium album (Chenopodium album; [3]): 5 (Herbicidal ratio of 90% or more (almost completely withered))
- L: herbicidal effect on Apera spica-venti. (Apera spica-venti.; [3]): 5 (Herbicidal ratio of 90% or more (almost completely withered))
- M: herbicidal effect on Abutilon theophrasti (Abutilon theophrasti; [3]): 5 (Herbicidal ratio of 90% or more (almost completely withered))
- H: herbicidal effect on Echinochloa crus-galli var. crus-galli [1, 3]: 5 (Herbicidal ratio of 90% or more (almost completely withered))
- F: herbicidal effect on Digitaria ciliaris (Digitaria ciliaris; [3]): 5 (Herbicidal ratio of 90% or more (almost completely withered))
- B (Scirpus juncoides) herbicidal ratio grade (Scirpus juncoides): 3 (Herbicidal ratio of 40% or more and less than 70%)
- A (Echinochloa oryzicola Vasing.) herbicidal ratio grade [2]: 5 (Herbicidal ratio of 90% or more (almost completely withered))
- C (Monochoria vaginalis) herbicidal ratio grade (Monochoria vaginalis): 4 (Herbicidal ratio of 70% or more and less than 90%)

Compound: Cn1nnnc1NC(=O)c1ccc(C(F)(F)F)n2c(CS(C)(=O)=O)nnc12 [2-034]
- J (Alopecurus myosuroides) herbicidal effect grade (Alopecurus myosuroides): 5 (Herbicidal ratio of 90% or more (almost completely withered))
- R (Veronica persica) herbicidal effect grade (Veronica persica): 5 (Herbicidal ratio of 90% or more (almost completely withered))
- P (Stellaria media) herbicidal effect grade (Stellaria media): 5 (Herbicidal ratio of 90% or more (almost completely withered))
- K (Lolium multiflorum Lam.) herbicidal effect grade (Lolium multiflorum Lam.): 5 (Herbicidal ratio of 90% or more (almost completely withered))
- G (Setaria viridis) herbicidal effect grade (Setaria viridis): 5 (Herbicidal ratio of 90% or more (almost completely withered))
- N (Amaranthus retroflexus) herbicidal effect grade (Amaranthus retroflexus): 5 (Herbicidal ratio of 90% or more (almost completely withered))
- I (Avena fatua) herbicidal effect grade (Avena fatua): 5 (Herbicidal ratio of 90% or more (almost completely withered))
- O (Chenopodium album) herbicidal effect grade (Chenopodium album): 5 (Herbicidal ratio of 90% or more (almost completely withered))
- L (Apera spica-venti.) herbicidal effect grade (Apera spica-venti.): 5 (Herbicidal ratio of 90% or more (almost completely withered))
- M (Abutilon theophrasti) herbicidal effect grade (Abutilon theophrasti): 5 (Herbicidal ratio of 90% or more (almost completely withered))
- H (Echinochloa crus-galli var. crus-galli) herbicidal effect grade [1]: 5 (Herbicidal ratio of 90% or more (almost completely withered))
- F (Digitaria ciliaris) herbicidal effect grade (Digitaria ciliaris): 5 (Herbicidal ratio of 90% or more (almost completely withered))
- B (Scirpus juncoides) herbicidal ratio grade (Scirpus juncoides): 4 (Herbicidal ratio of 70% or more and less than 90%)
- A (Echinochloa oryzicola Vasing.) herbicidal ratio grade [2]: 5 (Herbicidal ratio of 90% or more (almost completely withered))
- C (Monochoria vaginalis) herbicidal ratio grade (Monochoria vaginalis): 4 (Herbicidal ratio of 70% or more and less than 90%)
